According to patent US11484543B2, “Compositions and methods for diagnosing and treating diseases and disorders associated with mutant KCNJ5” (The Rockefeller University, priority 2017, dated 2022):

Legend:
KCNJ5^WT = target: T1, KCNJ5^WT (Homo sapiens, UniProt P48544); experiment: Perforated whole-cell patch clamp, KCNJ5^WT homotetramers in HEK293T cells; type: cell-based; details: increasing concentrations, −80 mV (FIG. 12D)
T1 construct: expressed in transfected cells
T1 sequence (P48544 1-419): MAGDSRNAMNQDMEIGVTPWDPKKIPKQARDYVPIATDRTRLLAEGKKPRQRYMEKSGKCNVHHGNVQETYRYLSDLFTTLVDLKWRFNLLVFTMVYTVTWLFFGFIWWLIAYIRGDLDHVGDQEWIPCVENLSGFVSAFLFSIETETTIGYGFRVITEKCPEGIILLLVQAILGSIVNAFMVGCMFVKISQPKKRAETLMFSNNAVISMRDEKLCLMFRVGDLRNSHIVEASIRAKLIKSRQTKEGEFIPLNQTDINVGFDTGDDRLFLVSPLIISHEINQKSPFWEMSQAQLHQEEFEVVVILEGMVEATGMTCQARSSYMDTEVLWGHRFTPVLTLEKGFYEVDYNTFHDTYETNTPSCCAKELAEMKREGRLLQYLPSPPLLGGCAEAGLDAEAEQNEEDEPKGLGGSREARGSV
Experimental: Cation currents were measured with the perforated whole cell recording technique (140 mM NaCl/5 mM KCl bath solution, 140 mM KCl pipette solution for KCNJ5^G151R; 140 mM NaCl/5 mM KCl bath solution, 140 mM KCl, 1.8 mM MgCl2 pipette solution for KCNJ5^L168R; 140 mM KCl bath and pipette solution for KCNJ5^WT). […] Errors represent standard error of the mean, N=3 to 6. […] In contrast, WT currents are not inhibited.
HEK293T cells (American Type Culture Collection) were used for transient expression of GFP-tagged KCNJ5 or KCNJ3. The cells were grown in Dulbecco's modified Eagle medium (DMEM; Invitrogen) supplemented with 10% FBS (Invitrogen) in 5% CO2 and 95% air at 37° C. […]
Within 24 hr after transfection, the cells were treated with trypsin-containing medium (TrypLE Express) (Gibco) for 10 minutes to detach the cells. […] Fluorescence signal (an indication of positive transfection) was detected with an intensified video imaging system including a SIT 68 camera (Long Island Industries). […] After forming a high resistance seal (>2 GΩ), the membrane capacitance was monitored until the whole-cell patch configuration was formed. The cell membrane capacitance was measured and compensated. The K/cation currents were measured from −80 mV to 20 mV with 20 mV steps by an Axon 200A patch-clamp amplifier. […]

[1] = tested on: CYP11B2 (aldosterone synthase) expression, H295R cells expressing KCNJ5^G151R; experiment: Real-time PCR of CYP11B2 in H295R cells transfected with KCNJ5^G151R; type: cell-based, human; details: 5, 20 or 50 μM for 18 h; p=0.0006 at 20 μM
Experimental: H295R cells were cultured in DMEM/F12, HEPES (Gibco) supplemented with 2.5% Ultroser G (Pall Biosepra), 1% ITS+ Premix (Corning) and 1% Penicillin/Streptomycin (Gibco). Plasmids were purified using the Endofree Maxi Kit (Qiagen). […] 3×10^6 cells were transfected with 3 μg pIRES eGFP containing no insert, WT or mutant KCNJ5 using an Amaxa Nucleofector I (program P-20) and the Nucleofector Kit R (Lonza). Cells were allowed to recover briefly in RPMI 1640 medium (Gibco). […] After an additional 18 h, RNA was harvested using the RNeasy Mini Kit (Qiagen) following the manufacturer's instructions. 300 ng RNA were transcribed using the Quantitect Reverse Transcription Kit (Qiagen). Expression levels of CYP11B2 and GAPDH were quantified in triplicates in a 7300 Real-Time PCR System (Applied Biosystems) using the Taqman Gene Expression Master Mix and assays Hs01597732_m1 (CYP11B2) or HS02758991_g1 (GAPDH) (all Applied Biosystems). DDCT values were calculated by normalization of DCT values, using the average DCT of vehicle treated empty vector-transfected cells as a reference.
This cell line is derived from a human adrenocortical carcinoma and represents a commonly used in vitro model of zona glomerulosa aldosterone production (Wang et al. 2012, Horm. Metab. Res. 44:245-250). […]

CC[C@H]1OC(=O)[C@H](C)[C@@H](O[C@H]2C[C@@](C)(OC)[C@@H](O)[C@H](C)O2)[C@H](C)[C@@H](O[C@@H]2O[C@H](C)C[C@H](N(C)C)[C@H]2O)[C@](C)(O)C[C@@H](C)/C(=N\OCOCCOC)[C@H](C)[C@@H](O)[C@]1(C)O [Roxithromycin, roxithromycin]
inhibition of WT currents (KCNJ5^WT): not inhibited | expression of CYP11B2 [1]: inhibited expression of CYP11B2 in a dose-dependent fashion
